Laboratory results reported in patent US7056491B2, “Monoterpenes and sesquiterpenes as chemotherapeutic and radiation sensitizers and immunomodulators” (Wisconsin Alumni Research Foundation, priority 2000, dated 2006).

Tests used:
Type in all cases: cell-based, human
T98G cells [1] = assay: Clonogenic survival, POH pretreatment then doxorubicin, T98G; conditions: POH 0.1 mM–0.5 mM 48 hours then doxorubicin 0.01 uM–0.1 uM 48 hours
Description: Referring to FIG. 29, subconfluent cells of T98G cells were treated with varying concentrations of perillyl alcohol (0.1 mM–0.5 mM) for 48 hours and subsequently treated with the indicated dose of doxorubicin (0.01 uM–0.1 uM) for 48 hours. At the end of the treatment, POH-pretreated and untreated cells in the presence and absence of doxorubicin, were harvested, washed with PBS, plated at the desired cell number and incubated for two weeks. The colonies were stained with crystal violet and quantitated. Survival was determined as the ratio of plating efficiencies for each irradiated group to that of the untreated control. […] Doxorubicin at concentrations over 0.1 uM appeared to be toxic to the cells.

[2] = test system: glioma, prostate, colon and melanoma cell lines; assay: Apoptosis by flow cytometry of propidium iodide stained cells (sub G0/G1 peak); conditions: 72 hours
Source text: In the present study we evaluated the effect of POH treatment on a panel of human glioma (T98G, MO59K, U-87, U-373, U-251), prostate cancer cell lines (PC3 and DU145), colon (DLD-1, HT29), melanoma (Mel5, M21).

[3] = test system: glioma and prostate cancer cell lines; assay: Apoptosis by dual colored (PI and Annexin V) flow cytometry; conditions: 1 mM POH, 72 hours
Description: Glioma (T98G, U251, U353, U87 and MO59K) and prostate (DU145, PC3) cell lines were treated with or without 1 mM perillyl alcohol (POH) for 72 hours. The cells were harvested by trypsinization washed with PBS and subsequently staimed with antibody to annexin V conjugated to FITC and with PI (10 μg/ml). Viable (annexin V^−/PI^−) pre-apoptotic (annexin V^+/PI^−), apoptotic (annexin V^+/PI^+), and the residual damaged (annexin V^−/PI^+) cells were quantitated using this protocol.

Fas Ligand = assay: Membrane bound Fas ligand staining by flow cytometry
Description: Referring to FIG. 17, glioma cell lines (T98G, U251, U87 and U353) were treated with 0.3 mM perillyl alcohol (POH) for 72 hours and the cells were harvested using cell dissociation solution. The resulting cell pellet was stained with biotinylated antibody specific to the human Fas-Ligand (Pharmingen), or IgG1 k isotype control for 45 minutes at 4° C. The cells were washed and incubated with streptavidin conjugated phycoerythrin washed and analyzed by flow cytometry.
(§1) The cells were harvested using cell dissociation solution, and the resulting cell pellet was washed and incubated with biotinylated anti-human antibody, which served as a control to eliminate non-specific binding. Following the primary antibody incubation the cells were washed and subsequently stained with secondary antibody conjugated to phycoerythrin (PE) (PharMingen) and antibody to CD95 directly conjugated to allophycocyanin (APC). The stained cells were analyzed using a Beckton-Dickinson FACStar plus and the results were acquired using CELLquest software.
(§2) Subconfluent cultures of the indicated glioma (T98G, U251, U353, U87MG), prostate (DU145, PC3), colon (DLD-1) and melanoma (Mel5) cell lines were treated with varying concentrations of POH (0.1 mM–1 mM POH) dissolved in medium for 72 hours. […] The stained cells were analyzed using a Beckton-Dickinson FACStar plus and the results were acquired using CELLquest. […]

Fas receptor = Fas receptor (CD95) staining by flow cytometry; conditions: 0.1 mM–1 mM POH 72 hours; same cell lines except U87MG
Description: as §1
as §2, with “hours. At the end of the incubation, the cells were harvested using cell dissociation solution, and the resulting cell pellet was washed and incubated with biotinylated anti-human antibody to the FasL (PharMingen) or with an isotype matched anti-human antibody, which served as a control to eliminate non-specific binding.” for “hours.”

T98G cells [4] = assay: Clonogenic survival assay, POH with or without radiation, T98G
Source text: Cell Line: The T98G cell line was derived from a resection specimen obtained from a patient with glioblastoma multiforme. T98G cells express endogenous mutant p53 and introduction of wild-type p53 sensitizes these cells to radiation. The radioresistance of this cell line has also been attributed to the presence of high intracellular levels of GSH, which down-regulates NFκB binding activity after exposure to ionizing radiation. A clonogenic survival assay was used to assess the response to treatment in vitro, as it is a measure of reproductive capacity.
Clonogenic Survival Assays: The T98G cell line was obtained from ATCC and maintained in DMEM-F12 medium containing 10% fetal bovine serum, 1% penicillin, streptomycin and 1 mM non-essential amino acids in a humidified incubator at 37° C. Stock solution of POH was made in the medium. One set of plates was treated with graded doses of POH (0.1 mM to 1 mM) for a period of 72 hours. Control dishes were treated with medium alone. All cells were irradiated at a dose rate of 7.5Gy/min using a CS-137 irradiator with single doses ranging from 1 Gy to 8.5Gy. The range of radiation doses used encompasses that used to treat patients.
Following irradiation, both POH treated and untreated cells were harvested by trypsinization and washed with PBS. Cells were incubated for two weeks after initial plating, fixed with methanol, stained with crystal violet and the number of colonies per dish quantitated. Survival was determined as the ratio of plating efficiencies for each irradiated group to that of the unirradiated control.
Subconfluent cultures of human glioma cell line T98G were treated with 0.1–0.5 mM of Perillyl Alcohol for 72 hours and subsequently to increasing doses of radiation from 0.1 Gy to 8.5 Gy. Control cells were treated with medium alone. The cells were harvested and an optimum number of cells were allowed to grow for 14 days. The resulting colonies were stained and counted. Each graphed point represents mean values ± SE values of triplicate dishes.
Table 1 summarizing data from different cell lines treated with radiation, radiation plus POH, and POH alone. Subconfluent cultures of human glioma (T98G, M059K, U251), prostate (DU145, PC3), colon (DLD-1, HT29) and pancreatic (MIAPACA) cancer cell lines were treated with 0.1–0.5 mM of POH for 72 hours and subsequently to increasing doses of radiation from 0.1 Gy to 8.5 Gy. Control cells were treated with medium alone. The cells were harvested and an optimum number of cells were allowed to grow for 14 days. The resulting colonies were stained and counted. Each graphed point represents mean values ± SE values of triplicate dishes. Percentage survival was determined as the ratio of plating efficiencies for each irradiated group to that of the unirradiated control.

C=C(C)[C@@H]1CC=C(CO)CC1 [POH, Perillyl alcohol]
sensitization to doxorubicin-induced cell death (T98G cells [1]): dose-dependent sensitization
effect of higher concentrations on tumor cell lines ([2]; 1 mM POH): cell death via apoptosis
toxicity to tumor cell lines ([2]; clinically relevant doses 0.1 mM–0.5 mM): relatively non-toxic
early and late apoptotic cells (annexin V/PI) [3]: increase in the percentage of early as well as late apoptotic cells
Fas Ligand in glioma, prostate, colon and melanoma cell lines (Fas Ligand; 0.1 mM–1 mM POH 72 hours, more pronounced at lower concentrations): upregulation of the Fas Ligand
membrane bound Fas ligand on glioma cell lines (Fas Ligand; T98G, U251, U87, U353, 0.3 mM POH 72 hours): upregulation
levels of the Fas receptor (Fas receptor): did not alter
concentration with the most pronounced radiosensitization (T98G cells [4]): 0.5 mM
lowest concentration at which radiosensitization was observed (T98G cells [4]): 0.1 mM
% SURVIVAL (T98G cells [4]; 0.1 mM POH 72 h, no radiation): 0.755 ± 0.016%
% SURVIVAL (T98G cells [4]; 0.1 mM POH + 5.5 Gy): 0.130 ± 0.002%
% SURVIVAL (T98G cells [4]; 0.3 mM POH 72 h, no radiation): 0.660 ± 0.024%
% SURVIVAL (T98G cells [4]; 0.3 mM POH + 5.5 Gy): 0.066 ± 0.004%
% SURVIVAL (T98G cells [4]; 0.5 mM POH 72 h, no radiation): 0.500 ± 0.006%
% SURVIVAL (T98G cells [4]; 0.5 mM POH + 5.5 Gy): 0.037 ± 0.014%
sensitization to radiation induced cell death (T98G cells [4]; pretreatment before and during irradiation): dose dependent sensitization
